# Measurements taken from paper PMC12426922, “Fingerprinting the Intestinal Transport of Low-Molecular-Mass Advanced Glycation End-Products (AGEs) Using a Caco‑2 Transwell Model” (Journal of Agricultural and Food Chemistry, 2025).
# Like-named read-outs stand apart in the source and are kept apart here. Marks after values point to notes of the source that are not given here.
# Columns and labels:
# [1] = system: Caco-2 cell layer; assay: Transport of AGE mixture across Caco-2 cell layer (transwell, apical to basolateral); type: in vitro ADME, Human; details: for percentage of the amount added at the apical side at t = 0: apical side / percentage of the amount added at the apical side at t = 0: basolateral side / percentage of the amount added at the apical side at t = 0: apical side (nontransported) / percentage of the amount added at the apical side at t = 0: basolateral side (transported): mixture, each AGE 100 μmol/L, 2 h; for percentage of the amount added at the apical side at t = 0: apical side (nontransported) / percentage of the amount added at the apical side at t = 0: basolateral side (transported): standard treatment
# Description: (§1) Human colon carcinoma cells (Caco-2 cells) were obtained from the American Type Culture Collection (ATCC, Rockville, MD, USA). Caco-2 cells were cultured in complete culture medium, composed of DMEM GlutaMAX with 10% FBS (v/v), 1% P/S (v/v), and 1% NEAA (v/v) at 37 °C in a 5% (v/v) CO2 incubator. In this study, Caco-2 cells within passages 10–15 were utilized.
# (§2) Caco-2 cells were cultured until reaching 50%–60% confluence (undifferentiated Caco-2 cells), followed by trypsinization. Then, cells were seeded at 3 × 10^4 cells per insert in 100 μL of complete culture medium into the transwell inserts of a 24-well transwell plate, and 600 μL of complete culture medium was added to the basolateral compartments. In both the apical and basolateral compartments, the medium was renewed every other day. After 2 weeks, the transepithelial electrical resistance (TEER) value was measured using a Millicell ERS-2 Electrical Resistance System (Burlington, MA, USA) every other day. Only wells with a TEER value of >400 Ω/cm^2 were used for transport experiments. Moreover, the TEER value was measured before and after the transport experiment to ascertain that the Caco-2 cell layer remained intact during the whole transport experiment.
# (§3) Transport experiments were performed after 20 days of differentiation of the Caco-2 cells. The culture medium was replaced with HBSS (containing 1% (v/v) HEPES) 30 min prior to testing in both the apical and basolateral compartments. After the 30 min preincubation, 100 μL of HBSS containing a mixture of the 10 different AGEs including CML, CEL, GALA, argpyrimidine, MG-H1, GOLD, GOLA, MOLD, pentosidine, and pyrraline, each at 100 μmol/L, was added to the apical compartment after removing the preincubation medium, while the basolateral medium was replaced by 600 μL of HBSS. […] At 120 min, a 10 μL sample from the apical side was taken for calculating apical side retention (nontransported percentage).
# (§4) The apparent permeability coefficient (Papp) value was calculated according to the methodology described by Yee.
# (§5) AGEs were quantified by LC-MS using a Shimadzu Nexera XR LC-40D XR UPLC system (Kyoto, Japan) equipped with a UPLC Amide column (100 mm × 2.1 mm, 1.7 μm) without derivatization coupled with a Shimadzu LCMS-8045 triple quadrupole mass spectrometer (Kyoto, Japan). The analytical column was maintained at 40 °C throughout the quantification process. A multistep binary gradient system of water containing 0.1% (v/v) formic acid (solvent A) and acetonitrile containing 0.1% (v/v) formic acid (solvent B) was used. In the whole gradient program, the total proportion of solvents A and B is always equal to 100%. The gradient program was designed as follows: 75% solvent B to 12.5% solvent B from 0 to 10 min, followed by 12.5% solvent B from 10 to 11 min. […] The initial flow rate was set to 0.30 mL/min. Subsequently, it was reduced to 0.25 mL/min at 0.3 min, which was kept until 10 min. Afterward, there was a gradual decrease, reaching 0.15 mL/min at 11 min, and this rate was maintained until 12 min. […] Between 1 and 11 min of gradient running, the line was set to MS, and for the other time periods, the line was set to waste. The retention time and mass spectrometry parameters of individual AGEs are listed in Table S1 and the chromatograms of the samples are shown in Figure S1.
# [2] = system: PepT1; assay: as above; type: in vitro ADME, Human; details: human, mixture, each AGE 100 μmol/L; for recovery at 2 h, 100 μmol/L: Caco-2, with Gly-Sar 10 mmol/L (apical compartment), Gly-Sar 10 mmol/L, read-out: percentage of the amount added at the apical side at t = 0: recovery; for Papp at 120 min, 100 μmol/L: Caco-2, with Gly-Sar 10 mmol/L (apical), 10 mmol/L Gly-Sar apical (PepT1 inhibition), data from 120 min
# Description: as §1, §2, §3, §4, §5
# [3] = as above; type: in vitro ADME, Human; details: human; for recovery at 2 h, 100 μmol/L: read-out: percentage of the amount added at the apical side at t = 0: recovery; for Papp at 120 min, 100 μmol/L: data from 120 min
# Description: as §1, §2, §3, §4, §5
# [4] = system: differentiated Caco-2 cells; assay: WST-1 cytotoxicity assay, viability of differentiated Caco-2 cells after 2 h exposure; type: cell-based, Human; details: for concentration that did not significantly affect cell viability: for the mixture: concentration of each AGE
# Description: as §1
# The WST-1 assay was used to quantify the viability of differentiated Caco-2 cells upon exposure to the individual AGEs and their equimolar mixture. To this end, Caco-2 cells were seeded in 96-well plates at 3 × 10^4 cells/well (100 μL) and incubated at 37 °C under 5% (v/v) CO2 for 20 days. The complete culture medium was refreshed on each alternate day. After full differentiation, the culture medium was removed, and the cells were washed with HBSS (containing 1% (v/v) HEPES) twice on the testing day. The same volume (100 μL) of HBSS containing a series of concentrations of the different individual test compounds or of a mixture containing all 10 AGEs was added from a 20-times-concentrated stock solution in HBSS. The test concentrations were designed based on the estimated daily intake of total AGEs (0.55–0.66 mg/(kg·day)) and high-exposure scenarios (1.4–1.8 mg/(kg day)). […] After exposure for 2 h, the absorbance at 440 and 620 nm was measured in a plate spectrophotometer (Molecular Devices, San Jose, CA, USA, Spectra Max M2). After measurement, the cell viability was calculated as cell viability (%)=(Atested 440 nm−Atested 620 nm)/(Acontrol 440 nm−Acontrol 620 nm)×100
# [5] = system: Caco-2 cell monolayer; assay: Accumulation of AGEs in the Caco-2 cell monolayer after transport experiment; type: in vitro ADME, Human; details: mixture, each AGE 100 μmol/L, 2 h
# Description: After the transport experiment, the cell monolayer on the inset membrane was washed three times with HBSS and three times with PBS. […] The samples were subsequently centrifuged at 16 000g for 20 min at 4 °C, and the supernatant was collected for further analysis by LC-MS.
# as §5, with “The” for “AGEs were quantified by LC-MS using a Shimadzu Nexera XR LC-40D XR UPLC system (Kyoto, Japan) equipped with a UPLC Amide column (100 mm × 2.1 mm, 1.7 μm) without derivatization coupled with a Shimadzu LCMS-8045 triple quadrupole mass spectrometer (Kyoto, Japan). The”, “100%.” for “100%. The gradient program was designed as follows: 75% solvent B to 12.5% solvent B from 0 to 10 min, followed by 12.5% solvent B from 10 to 11 min.”
# [6] = Caco-2, 4 °C, mixture, each AGE 100 μmol/L
# [7] = Caco-2, cytochalasin D pretreatment, mixture, each AGE 100 μmol/L
# [8] = Caco-2, standard treatment (37 °C), equimolar mixture of 10 AGEs, each 100 μmol/L apical
# [9] = Caco-2, standard treatment, mixture, each AGE 100 μmol/L
# [10] = Caco-2, cytochalasin D 1 μg/mL, 30 min apical preincubation, mixture, each AGE 100 μmol/L
Compound,percentage of the amount added at the apical side at t = 0: apical side ([1]; 4 °C),percentage of the amount added at the apical side at t = 0: basolateral side ([1]; 4 °C),percentage of the amount added at the apical side at t = 0: apical side ([1]; Gly-Sar 10 mmol/L),percentage of the amount added at the apical side at t = 0: basolateral side ([1]; Gly-Sar 10 mmol/L),percentage of the amount added at the apical side at t = 0: apical side ([1]; cytochalasin D pretreatment),percentage of the amount added at the apical side at t = 0: basolateral side ([1]; cytochalasin D pretreatment),percentage of the amount added at the apical side at t = 0: apical side (nontransported) [1],percentage of the amount added at the apical side at t = 0: basolateral side (transported) [1],"recovery at 2 h, 100 μmol/L [2] [%]","Papp at 120 min, 100 μmol/L [2] [×10⁻⁶ cm/s]","recovery at 2 h, 100 μmol/L [3, 6] [%]","Papp at 120 min, 100 μmol/L [3, 6] [×10⁻⁶ cm/s]","recovery at 2 h, 100 μmol/L [3, 7] [%]","Papp at 120 min, 100 μmol/L [3, 8] [×10⁻⁶ cm/s]","recovery at 2 h, 100 μmol/L [3, 9] [%]","Papp at 120 min, 100 μmol/L [3, 10] [×10⁻⁶ cm/s]",percentage of the amount added at the apical side at t = 0: accumulation ([5]; 4 °C),percentage of the amount added at the apical side at t = 0: accumulation ([5]; Gly-Sar 10 mmol/L),percentage of the amount added at the apical side at t = 0: accumulation ([5]; cytochalasin D pretreatment),concentration that did not significantly affect cell viability [4] [µM],further results
"N[C@@H](CCCCn1cc[n+](CCCC[C@H](N)C(=O)O)c1)C(=O)O [GOLD, glyoxal-derived lysine dimer]",89.6 ± 13.2 ^b %,0.1 ± 0.1 ^b %,93.7 ± 7.9 ^ab %,0.2 ± 0.1 ^b %,101.2 ± 9.4 ^a %,0.8 ± 0.3 ^a %,94.6 ± 8.1 ^ab %,0.3 ± 0.2 ^b %,94.1 ± 8,0.1,89.8 ± 13.2,0.069,102 ± 9.5,0.134,95 ± 8.2,0.32,0.0 ± 0.0 ^c %,0.1 ± 0.0 ^a %,0.0 ± 0.0 ^ab %,,effect of 4 °C on transport compared to 37 °C ([1]; 4 °C versus 37 °C): significantly reduced; effect on cell viability [4]: did not affect cell viability up to the highest concentration tested
"CC1NC(NCCC[C@H](N)C(=O)O)=NC1=O (some centres unmarked) [MG-H1, methylglyoxal–hydroimidazolone]",89.7 ± 5.5 ^a %,0.3 ± 0.1 ^b %,90.1 ± 5.8 ^a %,0.4 ± 0.2 ^b %,93.0 ± 4.5 ^a %,1.2 ± 0.6 ^a %,93.4 ± 3.6 ^a %,0.4 ± 0.2 ^b %,90.8 ± 5.9,0.168,89.7 ± 5.4,0.107,94.6 ± 4.2,0.182,94.1 ± 3.6,0.526,0.0 ± 0.0 ^b %,0.3 ± 0.1 ^b %,0.3 ± 0.1 ^b %,≤ 750,percentage of the amount added at the apical side at t = 0: accumulation (intracellular) ([5]; standard treatment): 0.3 ± 0.1 ^a %
"Cc1c[n+](CCCC[C@H](N)C(=O)O)cn1CCCC[C@H](N)C(=O)O [MOLD, methylglyoxal–lysine dimer]",83.0 ± 6.5 ^b %,0.1 ± 0.1 ^b %,93.5 ± 7.2 ^a %,0.3 ± 0.2 ^b %,90.8 ± 12.2 ^ab %,0.8 ± 0.6 ^a %,90.6 ± 7.7 ^ab %,0.2 ± 0.2 ^b %,93.8 ± 7.2,0.11,83.1 ± 6.5,0.057,91.7 ± 12.6,0.098,90.8 ± 7.9,0.34,0.0 ± 0.0 ^a %,0.0 ± 0.1 ^a %,0.0 ± 0.1 ^a %,≤ 1500,
